The source of these data is PubChem BioAssay (NCI).

Molecules are shown by their SMILES. Values joined by “and” are separate entries in the source; they are usually repeats but may differ in a detail not shown here. Identical values can stand only once.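 Dose response: 5 concentrations. Exposure: 48 h. Format: 96-well plates. Endpoint: linear interpolation; highest concentration if not reached. GI50 is the concentration that inhibits growth by half. TGI is the concentration that stops growth completely.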 Where only a bound is given, the exact number is not on record here.

For the first experiment, the system named is NCI-H23 lung. Nature of the experiment: DTP human tumour cell line panel, 48 h.
`Cc1nc2sc3c(c2c(=O)[nH]1)CCCC3` displayed a TGI greater than 100 µM.

As to `O=C1NC(=O)/C(=C\c2ccccc2)C2=C1CCCC2`, the GI50 was 2.63 µM and the TGI is 8.33 µM.

For `C#COc1cccc(Nc2c(C#N)cnc3ncc(NC(=O)CCl)cc23)c1`, the GI50 is greater than 62.5 µM and the TGI was greater than 62.5 µM.

As to `CN(CCO)c1ccc(N2Cc3ccccc3OC3=C2C(=O)c2c(O)ccc(O)c2C3=O)cn1`, the GI50 was 0.263 µM and the TGI was determined as 0.834 µM.

As for `CC[C@H]1CN2CCc3cc(OC)c(OC)cc3[C@@H]2C[C@@H]1C[C@H]1NCCc2c1[nH]c1ccc(O)cc21`, the GI50 was 0.0177 µM and 0.0303 µM; the TGI was 0.0472 µM and 0.112 µM and 0.0706 µM.

For `CCCCCOc1ccc(/C=N/Nc2cc(C)nc3ccc(Br)cc23)cc1`, the GI50 was 1.85 µM and the TGI was determined as 3.82 µM.

In the case of `CC(=O)Oc1ccccc1C(=O)Nc1ncc([N+](=O)[O-])s1`, the GI50 was 1.8 µM; the TGI was 6.39 µM and > 63 µM.

For the compound `CCN(Cc1ccccc1C)c1ccc(CO)c(Cl)c1`, the GI50 is 12.8 µM and the TGI turned out to be 38 µM.

For the compound `O=C(O)CC(NC(=O)CP(=O)(O)O)C(=O)O` (centres undefined), the TGI was greater than 10000 µM.

Turning to `Cn1cc(C2=C(c3cccc(Br)c3)C(=O)NC2=O)c2ccccc21`, the GI50 was 12.5 µM and the TGI was greater than 25 µM.

For the compound `COc1ccc(CCNC(=O)c2ccc(NC3=C(Cl)C(=O)N(Cc4ccccc4)C3=O)cc2)cc1OC`, the GI50 was 2.01 µM and the TGI stood at 4.46 µM.

Compound `O=CN1CCN(CC(O)CN2CCCCC2)CC1` (centres undefined) yielded a TGI greater than 100 µM.

The subject of the next experiment is SK-MEL-28 melanoma. Nature of the experiment: DTP human tumour cell line panel, 48 h.
With `C=C1C(=O)OC2CC(C)C3(O)CCC(=O)C3(C)CC12` (centres undefined), the TGI is greater than 100 µM.

`Cc1nc2sc3c(c2c(=O)[nH]1)CCCC3`: the TGI is greater than 100 µM.

With `O=C1NC(=O)/C(=C\c2ccccc2)C2=C1CCCC2`, the GI50 was 4.14 µM and the TGI is 13.9 µM.

On to `C#COc1cccc(Nc2c(C#N)cnc3ncc(NC(=O)CCl)cc23)c1`, for which the GI50 was greater than 62.5 µM and the TGI was greater than 62.5 µM.

Regarding `CN(CCO)c1ccc(N2Cc3ccccc3OC3=C2C(=O)c2c(O)ccc(O)c2C3=O)cn1`, the GI50 is 0.246 µM and the TGI was 0.611 µM.

Take `CC[C@H]1CN2CCc3cc(OC)c(OC)cc3[C@@H]2C[C@@H]1C[C@H]1NCCc2c1[nH]c1ccc(O)cc21`: the GI50 is 0.0316 µM and 0.0425 µM; the TGI was 0.0813 µM and 0.256 µM and 0.41 µM.

For the compound `CCCCCOc1ccc(/C=N/Nc2cc(C)nc3ccc(Br)cc23)cc1`, the GI50 was 1.65 µM and the TGI amounted to 3.1 µM.

Take `CC(=O)Oc1ccccc1C(=O)Nc1ncc([N+](=O)[O-])s1`: the GI50 is 2.48 µM; the TGI was 15.2 µM and > 100 µM.

On to `CCN(Cc1ccccc1C)c1ccc(CO)c(Cl)c1`, for which the GI50 is 13.2 µM and the TGI came to 27.8 µM.

As to `O=C(O)CC(NC(=O)CP(=O)(O)O)C(=O)O` (centres undefined), the GI50 was 389 µM and the TGI was greater than 10000 µM.

On to `Cn1cc(C2=C(c3cccc(Br)c3)C(=O)NC2=O)c2ccccc21`, for which the GI50 is greater than 22.9 µM and the TGI is greater than 25 µM.

`COc1ccc(CCNC(=O)c2ccc(NC3=C(Cl)C(=O)N(Cc4ccccc4)C3=O)cc2)cc1OC`: the GI50 is 15.1 µM and the TGI was greater than 100 µM.

The compound `O=CN1CCN(CC(O)CN2CCCCC2)CC1` (centres undefined) showed a TGI greater than 100 µM.

The subject of a further experiment is BT-549 breast. Nature of the experiment: DTP human tumour cell line panel, 48 h.
For the compound `C=C1C(=O)OC2CC(C)C3(O)CCC(=O)C3(C)CC12` (centres undefined), the TGI was greater than 100 µM.

`Cc1nc2sc3c(c2c(=O)[nH]1)CCCC3` had a TGI greater than 100 µM.

Turning to `O=C1NC(=O)/C(=C\c2ccccc2)C2=C1CCCC2`, the GI50 was 4.13 µM and the TGI amounted to 16.4 µM.

As for `C#COc1cccc(Nc2c(C#N)cnc3ncc(NC(=O)CCl)cc23)c1`, the GI50 is greater than 62.5 µM and the TGI is greater than 62.5 µM.

Consider `CN(CCO)c1ccc(N2Cc3ccccc3OC3=C2C(=O)c2c(O)ccc(O)c2C3=O)cn1`, for which the GI50 was 0.177 µM and the TGI turned out to be 0.386 µM.

For `CC[C@H]1CN2CCc3cc(OC)c(OC)cc3[C@@H]2C[C@@H]1C[C@H]1NCCc2c1[nH]c1ccc(O)cc21`, the GI50 is 0.558 µM and the TGI came to 0.602 µM.

`CCCCCOc1ccc(/C=N/Nc2cc(C)nc3ccc(Br)cc23)cc1`: the GI50 is 1.77 µM and the TGI amounted to 3.43 µM.

`CC(=O)Oc1ccccc1C(=O)Nc1ncc([N+](=O)[O-])s1`: the GI50 was 1.97 µM.

On to `CCN(Cc1ccccc1C)c1ccc(CO)c(Cl)c1`, for which the GI50 is 15.8 µM and the TGI stood at 30.1 µM.

For `O=C(O)CC(NC(=O)CP(=O)(O)O)C(=O)O` (centres undefined), the TGI was greater than 10000 µM.

In the case of `Cn1cc(C2=C(c3cccc(Br)c3)C(=O)NC2=O)c2ccccc21`, the GI50 is 15.1 µM and the TGI was greater than 25 µM.

`COc1ccc(CCNC(=O)c2ccc(NC3=C(Cl)C(=O)N(Cc4ccccc4)C3=O)cc2)cc1OC`: the GI50 is 7.68 µM and the TGI was greater than 100 µM.

Compound `O=CN1CCN(CC(O)CN2CCCCC2)CC1` (centres undefined) had a TGI greater than 100 µM.

In a further experiment the test system is SK-MEL-5 melanoma. Nature of the experiment: DTP human tumour cell line panel, 48 h.
Turning to `C=C1C(=O)OC2CC(C)C3(O)CCC(=O)C3(C)CC12` (centres undefined), the TGI was greater than 100 µM.

In the case of `Cc1nc2sc3c(c2c(=O)[nH]1)CCCC3`, the TGI is greater than 100 µM.

In the case of `O=C1NC(=O)/C(=C\c2ccccc2)C2=C1CCCC2`, the GI50 is 1.81 µM and the TGI amounted to 3.52 µM.

For `C#COc1cccc(Nc2c(C#N)cnc3ncc(NC(=O)CCl)cc23)c1`, the GI50 was greater than 62.5 µM and the TGI was greater than 62.5 µM.

As for `CN(CCO)c1ccc(N2Cc3ccccc3OC3=C2C(=O)c2c(O)ccc(O)c2C3=O)cn1`, the GI50 is 0.267 µM and the TGI was 0.717 µM.

Regarding `CC[C@H]1CN2CCc3cc(OC)c(OC)cc3[C@@H]2C[C@@H]1C[C@H]1NCCc2c1[nH]c1ccc(O)cc21`, the GI50 is 0.0234 µM and 0.14 µM; the TGI is 0.0553 µM and 0.294 µM and 0.0304 µM.

Consider `CCCCCOc1ccc(/C=N/Nc2cc(C)nc3ccc(Br)cc23)cc1`, for which the GI50 was 1.74 µM and the TGI worked out at 3.16 µM.

Regarding `CC(=O)Oc1ccccc1C(=O)Nc1ncc([N+](=O)[O-])s1`, the GI50 was 1.5 µM; the TGI was 3.7 µM and 33 µM.

With `CCN(Cc1ccccc1C)c1ccc(CO)c(Cl)c1`, the GI50 was 4.77 µM and the TGI came out at 11.9 µM.

`O=C(O)CC(NC(=O)CP(=O)(O)O)C(=O)O` (centres undefined) returned a TGI greater than 10000 µM.

For the compound `Cn1cc(C2=C(c3cccc(Br)c3)C(=O)NC2=O)c2ccccc21`, the GI50 is 6.23 µM and the TGI was 22.3 µM.

As to `COc1ccc(CCNC(=O)c2ccc(NC3=C(Cl)C(=O)N(Cc4ccccc4)C3=O)cc2)cc1OC`, the GI50 is 6.27 µM and the TGI was found to be 42.3 µM.

`O=CN1CCN(CC(O)CN2CCCCC2)CC1` (centres undefined) displayed a TGI greater than 100 µM.

For a further experiment, the system named is HL-60(TB) leukemia. Nature of the experiment: DTP human tumour cell line panel, 48 h.
In turn, `C=C1C(=O)OC2CC(C)C3(O)CCC(=O)C3(C)CC12` (centres undefined) registered a TGI of 39.2 µM.

Turning to `Cc1nc2sc3c(c2c(=O)[nH]1)CCCC3`, the TGI is greater than 100 µM.

Consider `O=C1NC(=O)/C(=C\c2ccccc2)C2=C1CCCC2`, for which the GI50 was 3.25 µM and the TGI was determined as 12.5 µM.

As for `C#COc1cccc(Nc2c(C#N)cnc3ncc(NC(=O)CCl)cc23)c1`, the GI50 is 41 µM and the TGI is greater than 62.5 µM.

Take `CN(CCO)c1ccc(N2Cc3ccccc3OC3=C2C(=O)c2c(O)ccc(O)c2C3=O)cn1`: the GI50 was 0.114 µM and the TGI was determined as 0.406 µM.

For the compound `CC[C@H]1CN2CCc3cc(OC)c(OC)cc3[C@@H]2C[C@@H]1C[C@H]1NCCc2c1[nH]c1ccc(O)cc21`, the GI50 is 0.0296 µM and 0.025 µM; the TGI was 0.0955 µM and 0.0514 µM and 0.0353 µM.

On to `CCCCCOc1ccc(/C=N/Nc2cc(C)nc3ccc(Br)cc23)cc1`, for which the GI50 was 1.91 µM and the TGI came to 3.78 µM.

In the case of `CC(=O)Oc1ccccc1C(=O)Nc1ncc([N+](=O)[O-])s1`, the GI50 is 1.77 µM and the TGI is 4.24 µM.

Consider `CCN(Cc1ccccc1C)c1ccc(CO)c(Cl)c1`, for which the GI50 is 11.3 µM and the TGI was 34.4 µM.

`O=C(O)CC(NC(=O)CP(=O)(O)O)C(=O)O` (centres undefined) showed a TGI greater than 10000 µM.

As to `Cn1cc(C2=C(c3cccc(Br)c3)C(=O)NC2=O)c2ccccc21`, the GI50 is 10.2 µM and the TGI is greater than 25 µM.

As to `COc1ccc(CCNC(=O)c2ccc(NC3=C(Cl)C(=O)N(Cc4ccccc4)C3=O)cc2)cc1OC`, the GI50 was 2.83 µM and the TGI turned out to be 4.49 µM.

As for `O=CN1CCN(CC(O)CN2CCCCC2)CC1` (centres undefined), the TGI was greater than 100 µM.

The TGI is the concentration giving total growth inhibition. Lower therefore signals more potent growth arrest. By GI50 is commonly meant the concentration giving 50% growth inhibition.
